Measured values from US12570662B2, “Substituted pyrrolo[1,2-b]pyridazines as bifunctional degraders of interleukin-1 receptor-associated kinases” (Nurix Therapeutics, Inc., priority 2021, dated 2026).

Target: T1, IRAK4 (Homo sapiens, UniProt Q9NWZ3)
T1 construct: C-terminal HiBiT-tagged Jurkat cells (polyclonal cell line or clone 8D5); endogenous in cells; host or cells: Jurkat cells (polyclonal cell line or clone 8D5), HiBiT-tagged
T1 sequence (Q9NWZ3 1-460): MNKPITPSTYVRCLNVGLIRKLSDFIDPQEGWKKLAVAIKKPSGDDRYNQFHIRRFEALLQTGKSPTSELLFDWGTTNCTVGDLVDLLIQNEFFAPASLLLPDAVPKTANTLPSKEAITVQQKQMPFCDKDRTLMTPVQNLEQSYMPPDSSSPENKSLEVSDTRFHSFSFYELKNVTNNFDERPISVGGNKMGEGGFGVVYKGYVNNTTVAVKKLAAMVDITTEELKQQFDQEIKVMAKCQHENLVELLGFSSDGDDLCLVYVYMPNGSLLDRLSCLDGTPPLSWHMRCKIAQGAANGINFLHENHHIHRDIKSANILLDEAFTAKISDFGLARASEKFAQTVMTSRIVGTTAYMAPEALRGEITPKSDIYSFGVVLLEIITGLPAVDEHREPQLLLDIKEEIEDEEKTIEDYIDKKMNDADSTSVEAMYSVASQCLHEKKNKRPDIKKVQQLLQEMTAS
Assay: IRAK4 Degradation HiBit Assay
Assay type: cell-based
Details: C-terminal HiBiT-tagged Jurkat cells, 4 hrs incubation; for DC50: % IRAK4 remaining, four-parameter fit (IC50 used as DC50); for Dmax: from fit of % IRAK4 remaining, read-out: Dmax
Summary of the method: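 Jurkat cells carrying C-terminal HiBiT-tagged IRAK4 (polyclonal or clone 8D5) exposed to compound, 10 μM–0.1 nM final over 11 points, for 4 h at 32 °C. Remaining IRAK4 measured by lytic HiBiT/LgBiT luminescence relative to DMSO. DC50 and Dmax taken from four-parameter variable-slope fits.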

Row | SMILES | DC50 [nM] | Dmax [%]
1 | N#Cc1cnn2c(-c3cc(NC4CCOCC4)c(-c4nnc(N5CC6CCC(C5)N6CC5CCN(c6ccc(N7CCC(=O)NC7=O)cc6)CC5)s4)cn3)ccc2c1 [Example 84, 7-(5-{5-[8-({1-[4-(2,4-dioxo-1,3-diazinan-1-yl)phenyl]piperidin-4-yl}methyl)-3,8-diazabicyclo[3.2.1]octan-3-yl]-1,3,4-thiadiazol-2-yl}-4-[(oxan-4-yl)amino]pyridin-2-yl)pyrrolo[1,2-b]pyridazine-3-carbonitrile] | 24 | 77
2 | N#Cc1cnn2c(-c3cc(NC4CCOCC4)c(-c4nnc(N5CC6CCC(C5)N6CC5CCN(c6ccc(N7CCC(=O)NC7=O)cn6)CC5)s4)cn3)ccc2c1 [Example 86, 7-(5-{5-[8-({1-[5-(2,4-dioxo-1,3-diazinan-1-yl)pyridin-2-yl]piperidin-4-yl}methyl)-3,8-diazabicyclo[3.2.1]octan-3-yl]-1,3,4-thiadiazol-2-yl}-4-[(oxan-4-yl)amino]pyridin-2-yl)pyrrolo[1,2-b]pyridazine-3-carbonitrile] | 12 | 111
3 | N#Cc1cnn2c(-c3cc(NC4CC4)c(-c4nnc(N5CC6CCC(C5)N6CC5CCN(c6ccc(N7CCC(=O)NC7=O)cn6)CC5)s4)cn3)ccc2c1 [Example 115, 7-[4-(cyclopropylamino)-5-{5-[8-({1-[5-(2,4-dioxo-1,3-diazinan-1-yl)pyridin-2-yl]piperidin-4-yl}methyl)-3,8-diazabicyclo[3.2.1]octan-3-yl]-1,3,4-thiadiazol-2-yl}pyridin-2-yl]pyrrolo[1,2-b]pyridazine-3-carbonitrile] | 48 | 109
